Holding throughout (test): growth of human tumour cells (NCI), 48 h
Assay [1] relates to RXF 393 renal.
The subject of assay [2] is SF-268 CNS.
Assay [3] relates to SW-620 colon.
For assay [4], the system named is COLO 205 colon.
Assay [5] has as its system UACC-257 melanoma.
The test system of assay [6] is LOX IMVI melanoma.
The subject of assay [7] is SN12C renal.
Assay [8] relates to HCT-15 colon.
Assay [9] has as its system M14 melanoma.
The subject of assay [10] is HCC-2998 colon.

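48-hour exposure; five concentrations; linearly interpolated endpoints. TGI marks complete inhibition of growth.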 Bounds are passed on as bounds.

The values below come from PubChem BioAssay (NCI).

As to `CN(/N=C\c1ccnc2ccccc12)c1ccccc1`, the TGI was 77.3 µM in assay [1]; > 100 µM in [2]; 51.4 µM in assay [3]; 39.8 µM in assay [4]; 42.6 µM in [5]; 32.3 µM in assay [6]. In addition, the TGI was > 100 µM in assay [7], 39.5 µM in [8] and 38.2 µM in assay [9].

Take `O=C(CC1(O)C(=O)Nc2c(Cl)cc(Cl)cc21)c1ccc(F)cc1` (stereo not given): the TGI was 88.3 µM in [1]; > 100 µM in [2]; > 100 µM in assay [3]; 43 µM in assay [4]; 65 µM in assay [5]; 66.5 µM in assay [6]. For the same compound, the TGI in assay [7], in [8], in [9] and in assay [10] was > 100 µM in each case.

For `CC(=O)NNc1nc(C)c(C(=O)/C=C/c2ccc(Cl)c(Cl)c2)s1`, the TGI in assay [1], in assay [2], in assay [3], in assay [4], in [5] and in assay [6] was > 100 µM in each case. Moreover, the TGI in [7], in [8] and in assay [10] was > 100 µM throughout.

With `COc1ccc(/C=C2\CCC(CCN3CCOCC3)C2=O)cc1` (stereo not given), the TGI in [1], in assay [2], in assay [3], in assay [5], in assay [6] and in assay [7] was > 100 µM each time. Further, the TGI in [8], in [9] and in [10] was > 100 µM in each case.

As for `COC(=O)C(=O)C(/C(=N/N)C(=O)Nc1ccccc1C(N)=O)c1nc2ccc([N+](=O)[O-])cc2[nH]c1=O` (stereo not given), the TGI in assay [2], in [3], in assay [4], in assay [5], in assay [6] and in assay [7] was > 100 µM throughout. The TGI in assay [8], in [9] and in assay [10] was > 100 µM throughout.

`COc1ccc(/C=C/C(=O)c2sc(-c3cccnc3)nc2C)cc1`: the TGI in [1] was 90.8 µM; in assay [2], > 100 µM; in [3] it was > 100 µM; in assay [4] it was > 100 µM; in assay [5] it was > 100 µM; in assay [6], > 100 µM. Besides, the TGI in [7], in assay [8] and in assay [10] was > 100 µM throughout.

For `CC(C)OP(=O)(OC(C)C)C(=NCCN=C(NNc1ccccc1[N+](=O)[O-])P(=O)(OC(C)C)OC(C)C)NNc1ccccc1[N+](=O)[O-]`, the TGI in [2] was > 100 µM; in [3], > 100 µM; in assay [4] it was 54.9 µM; in assay [5], 84.6 µM; in [6], > 100 µM; in assay [7] it was > 100 µM. Moreover, the TGI in assay [8], in [9] and in assay [10] was > 100 µM in each case.

`O=C(Cc1nc2ccc([N+](=O)[O-])cc2[nH]c1=O)C(=O)Nc1ccccc1[N+](=O)[O-]`: the TGI in assay [1], in assay [2], in assay [3], in assay [4], in assay [5] and in assay [6] was > 100 µM each time. For the same compound, the TGI in [8], in assay [9] and in assay [10] was > 100 µM each time.

Take `CC(C)C(Sc1nc(-c2ccccc2)c(-c2ccccc2)[nH]1)c1n[nH]c(=S)n1-c1ccccc1` (stereo not given): the TGI was > 100 µM in assay [2]; > 100 µM in [3]; 62.1 µM in [4]; 74.9 µM in assay [5]; 35.4 µM in assay [6]; > 100 µM in [7]. Besides, the TGI in assay [8] is > 100 µM; in assay [9] it was 38.2 µM; in [10] it was 46 µM.

Regarding `NC(CCCCNCc1ccccc1)C(=O)O` (stereo not given), the TGI in assay [2], in assay [3], in assay [4], in assay [5], in assay [6] and in assay [7] was > 100 µM throughout. For the same compound, the TGI in assay [8], in assay [9] and in assay [10] was > 100 µM each time.

`COc1ccccc1NC(=O)CC(=O)N1N=C(c2ccccc2)C(N=Nc2ccc(Cl)cc2)C1=O` (stereo not given): the TGI in [2], in assay [3], in assay [4], in [5], in [6] and in [7] was > 100 µM throughout. For the same compound, the TGI in assay [8], in assay [9] and in assay [10] was > 100 µM each time.
